{
  "source": "patent EP4095134A1",
  "about": "“POLYCYCLIC COMPOUNDS FOR THE TREATMENT OF NEUROLOGICAL INDICATIONS” (UCL Business Ltd, priority 2021, dated 2022)",
  "data": [
    {"biological_target": "T1, P2Y1 receptor (Homo sapiens, UniProt P47900)", "T1 construct": "expressed in transfected cells", "T1 sequence (P47900 whole entry)": "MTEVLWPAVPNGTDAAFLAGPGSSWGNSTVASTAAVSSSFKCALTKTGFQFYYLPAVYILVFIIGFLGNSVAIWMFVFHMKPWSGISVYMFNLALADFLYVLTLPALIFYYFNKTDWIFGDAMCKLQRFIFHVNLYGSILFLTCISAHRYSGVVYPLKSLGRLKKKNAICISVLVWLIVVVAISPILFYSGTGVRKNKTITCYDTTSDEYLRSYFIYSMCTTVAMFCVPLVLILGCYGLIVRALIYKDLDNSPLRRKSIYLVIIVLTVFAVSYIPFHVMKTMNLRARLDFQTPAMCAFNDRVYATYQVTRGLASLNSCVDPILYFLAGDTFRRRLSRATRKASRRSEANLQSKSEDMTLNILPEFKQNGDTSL", "experiment": "P2Y1 IP1 accumulation HTRF assay, antagonism of agonist MRS2365 in stably transfected cells", "assay_type": "cell-based", "conditions": "racemic; 5nM MRS2365; values rounded to nearest whole number; N >= 4", "method": "(§1) IC50 values were determined using a cell based assay in stably transfected cells overexpressing the P2Y1 receptor. The assay system is a […] (HTRF) assay measuring accumulation of the intracellular messenger inositol monophosphate (IP1), generated intracellularly following activation of P2Y1. Activity of test compounds was generated by measuring antagonism of the increase in IP1 generated by addition of a selective P2Y1 agonist, MRS2365.\n(§2) P2Y1 overexpressing cells were maintained in T175 flasks. The day before the assay, these cells were split and 20µl cell suspension transferred to each well of white 384-well assay plates at a cell density of 0.5x10^6 cells/mL. Plates were pulse centrifuged, then incubated overnight at 37°C / 5% CO2 prior to assay.\n(§3) On day of assay, medium was removed from cells and replaced with stimulation buffer. Compounds were prepared in 100% DMSO for addition to cells using the Tecan D300e digital dispenser; compounds were prepared in cassette heads and added directly to wells in the required concentration range, to give a 10-point concentration response curve from 10µM with semi-log dilutions and a final DMSO concentration of 0.1%. Positive control antagonist curves with standard compounds were included on each plate. Plates were incubated with antagonists for 1 hour prior to addition of 5nM of the agonist MRS2365, dispensed using a Bravo liquid handler. Following agonist addition, plates were incubated for 60 minutes prior to assay. Both incubations were carried out at 37°C / 5% CO2.\n(§4) For the assay, IP1 accumulation was quantified using the IPOne kit according to manufacturer's instructions. In short, a standard curve was prepared for IP 1 quantification, and cells lysed using kit lysis buffer. Assay reagents were added to the lysates, and incubated for 1 hour at room temperature without spinning or shaking. Plates were analysed on a BMG Pherastar plate reader, and IP1 signal generated in cells interpolated from the standard curve.\n(§5) For all reported results, N is greater than or equal to 4. An individual N refers to one assay run with a single weighing of compound. A minimum of two assay runs were performed for each of two independent weighings of compound. Results (racemic)", "units": {"IC50": "nM"}, "values": [
      {"smiles": "Cc1ccc(NC(=O)Nc2ccc(OC(F)(F)F)cc2F)c(Oc2ccccc2C2(C(F)(F)F)CCO2)n1", "note": "(racemic) [S2, 1-(2-fluoro-4-(trifluoromethoxy)phenyl)-3-(6-methyl-2-(2-(2-(trifluoromethyl)oxetan-2-yl)phenoxy)pyridin-3-yl)urea]", "IC50": 33},
      {"smiles": "Cn1c(C(F)F)nc2ccc(NC(=O)Nc3cccnc3Oc3ccccc3C3(C(F)(F)F)CCO3)cc21", "note": "(racemic) [S85, 1-(2-(difluoromethyl)-1-methyl-1H-benzo[d]imidazol-6-yl)-3-(2-(2-(2-(trifluoromethyl)oxetan-2-yl)phenoxy)pyridin-3-yl)urea]", "IC50": 5580},
      {"smiles": "CN1CCC1(c1ccccc1Oc1ncccc1NC(=O)Nc1ccc(OC(F)(F)F)cc1)C(F)F", "note": "(racemic) [S35]", "IC50": 197},
      {"smiles": "Cc1ccc(NC(=O)NC2CC3(CCC3)C2)c(Oc2ccc(F)cc2C2(C(F)(F)F)CCO2)n1", "note": "(racemic) [S63, 1-(2-(4-fluoro-2-(2-(trifluoromethyl)oxetan-2-yl)phenoxy)-6-methylpyridin-3-yl)-3-(spiro[3.3]heptan-2-yl)urea]", "IC50": 844},
      {"smiles": "O=C(Nc1ccc(C(F)F)cc1)Nc1cccnc1Oc1ccccc1C1(C(F)(F)F)CCO1", "note": "(racemic) [S39, 1-(4-(difluoromethyl)phenyl)-3-(2-(2-(2-(trifluoromethyl)oxetan-2-yl)phenoxy)pyridin-3-yl)urea]", "IC50": 259},
      {"smiles": "Cc1c(Oc2ncccc2NC(=O)Nc2ccc(OC(F)(F)F)cc2)cccc1N1CC(C)(C)C1", "note": "[S93]", "IC50": 683},
      {"smiles": "Cc1ccc(NC(=O)Nc2ccc(OC3CC(F)(F)C3)cc2)c(Oc2ccccc2C2(C(F)(F)F)CCO2)n1", "note": "(racemic) [S15, 1-(4-(3,3-difluorocyclobutoxy)phenyl)-3-(6-methyl-2-(2-(2-(trifluoromethyl)oxetan-2-yl)phenoxy)pyridin-3-yl)urea]", "IC50": 105},
      {"smiles": "Cc1ccc(NC(=O)Nc2nc3ccc(C)nc3s2)c(Oc2ccc(F)cc2C2(C(F)(F)F)CCO2)n1", "note": "(racemic) [S34, 1-(2-(4-fluoro-2-(2-(trifluoromethyl)oxetan-2-yl)phenoxy)-6-methylpyridin-3-yl)-3-(5-methylthiazolo[5,4-b]pyridin-2-yl)urea]", "IC50": 196},
      {"smiles": "O=C(Nc1ccc(OC(F)F)cc1)Nc1cccnc1Oc1ccccc1C1(C(F)(F)F)CCO1", "note": "(racemic) [S43]", "IC50": 334},
      {"smiles": "CN1C(=O)CC1(c1ccccc1Oc1ncccc1NC(=O)Nc1ccc(OC(F)(F)F)cc1)C(F)F", "note": "(racemic) [S83]", "IC50": 4710},
      {"smiles": "Cn1c(C(F)(F)F)nc2ccc(NC(=O)Nc3cccnc3Oc3ccccc3C3(C(F)(F)F)CCO3)cc21", "note": "(racemic) [S78, 1-(1-methyl-2-(trifluoromethyl)-1H-benzo[d]imidazol-6-yl)-3-(2-(2-(2-(trifluoromethyl)oxetan-2-yl)phenoxy)pyridin-3-yl)urea]", "IC50": 3160},
      {"smiles": "Cc1ccc(NC(=O)Nc2ccc(F)cn2)c(Oc2ccc(F)cc2C2(C(F)(F)F)CCO2)n1", "note": "(racemic) [S54, 1-(2-(4-fluoro-2-(2-(trifluoromethyl)oxetan-2-yl)phenoxy)-6-methylpyridin-3-yl)-3-(5-fluoropyridin-2-yl)urea]", "IC50": 549},
      {"smiles": "CC(C)(C)CN1CCC1(c1ccccc1Oc1ncccc1NC(=O)Nc1ccc(OC(F)(F)F)cc1)C(F)(F)F", "note": "(racemic) [S117]", "IC50": 39},
      {"smiles": "O=C(Nc1ccc(OC(F)(F)F)cc1)Nc1cccnc1Oc1ccc(F)cc1C1(C(F)(F)F)CCO1", "note": "(racemic) [S33]", "IC50": 179},
      {"smiles": "Cc1ncc(NC(=O)Nc2ccc(Cl)cc2)c(Oc2ccccc2C2(C(F)(F)F)CCO2)n1", "note": "(racemic) [S69, 1-(4-chlorophenyl)-3-(2-methyl-4-(2-(2-(trifluoromethyl)oxetan-2-yl)phenoxy)pyrimidin-5-yl)urea]", "IC50": 1410},
      {"smiles": "O=C(Nc1ccc(F)cc1F)Nc1cccnc1Oc1ccccc1C1(C(F)(F)F)CCO1", "note": "(racemic) [S65, 1-(2,4-difluorophenyl)-3-(2-(2-(2-(trifluoromethyl)oxetan-2-yl)phenoxy)pyridin-3-yl)urea]", "IC50": 983},
      {"smiles": "O=C(Nc1ccc(OC(F)(F)F)cc1)Nc1cccnc1Oc1ccccc1C1(C(F)F)CCN1CCF", "note": "(racemic) [S118]", "IC50": 121},
      {"smiles": "O=C(Nc1ccccc1)Nc1cccnc1Oc1ccccc1C1(C(F)F)CCO1", "note": "(racemic) [S80]", "IC50": 3280},
      {"smiles": "Cc1ccc(NC(=O)Nc2ccccc2)c(Oc2ccc(F)cc2C2(C(F)(F)F)CCO2)n1", "note": "(racemic) [S42, 1-(2-(4-fluoro-2-(2-(trifluoromethyl)oxetan-2-yl)phenoxy)-6-methylpyridin-3-yl)-3-phenylurea]", "IC50": 324},
      {"smiles": "O=C(Nc1ccc(OC(F)(F)F)cc1F)Nc1ccc(Cl)nc1Oc1ccccc1C1(C(F)(F)F)CCO1", "note": "(racemic) [S14, 1-(6-chloro-2-(2-(2-(trifluoromethyl)oxetan-2-yl)phenoxy)pyridin-3-yl)-3-(2-fluoro-4-(trifluoromethoxy)phenyl)urea]", "IC50": 94},
      {"smiles": "Cc1ncc(NC(=O)Nc2ccc(OC3CC(F)(F)C3)cc2)c(Oc2ccccc2C2(C(F)(F)F)CCO2)n1", "note": "(racemic) [S81, 1-(4-(3,3-difluorocyclobutoxy)phenyl)-3-(2-methyl-4-(2-(2-(trifluoromethyl)oxetan-2-yl)phenoxy)pyrimidin-5-yl)urea]", "IC50": 3530},
      {"smiles": "Cc1ccc(NC(=O)Nc2ccc(OC(F)(F)F)cc2)c(Oc2ccc(F)cc2C2(C(F)(F)F)CCO2)n1", "note": "(racemic) [S19, 1-(2-(4-fluoro-2-(2-(trifluoromethyl)oxetan-2-yl)phenoxy)-6-methylpyridin-3-yl)-3-(4-(trifluoromethoxy)phenyl)urea]", "IC50": 120},
      {"smiles": "Cc1ccc(NC(=O)Nc2ccc(Cl)cc2)c(Oc2ccc(F)cc2C2(C(F)(F)F)CCO2)n1", "note": "(racemic) [S32, 1-(4-chlorophenyl)-3-(2-(4-fluoro-2-(2-(trifluoromethyl)oxetan-2-yl)phenoxy)-6-methylpyridin-3-yl)urea]", "IC50": 169},
      {"smiles": "Cc1ncc(NC(=O)Nc2ccc(OC(F)(F)F)cc2)c(Oc2ccccc2C2(C(F)(F)F)CCO2)n1", "note": "(racemic) [S59, 1-(2-methyl-4-(2-(2-(trifluoromethyl)oxetan-2-yl)phenoxy)pyrimidin-5-yl)-3-(4-(trifluoromethoxy)phenyl)urea]", "IC50": 644},
      {"smiles": "O=C(Nc1cccc(OC(F)(F)F)c1)Nc1cccnc1Oc1ccc(F)cc1C1(C(F)(F)F)CCO1", "note": "(racemic) [S49, 1-(2-(4-fluoro-2-(2-(trifluoromethyl)oxetan-2-yl)phenoxy)pyridin-3-yl)-3-(3-(trifluoromethoxy)phenyl)urea]", "IC50": 419},
      {"smiles": "Cc1ncc(NC(=O)Nc2ccc(Cl)c(F)c2)c(Oc2ccccc2C2(C(F)(F)F)CCO2)n1", "note": "(racemic) [S64, 1-(4-chloro-3-fluorophenyl)-3-(2-methyl-4-(2-(2-(trifluoromethyl)oxetan-2-yl)phenoxy)pyrimidin-5-yl)urea]", "IC50": 926},
      {"smiles": "O=C(Nc1cccnc1Oc1ccccc1C1(C(F)(F)F)CCO1)NC1CC2(CC2)C1", "note": "(racemic) [S74]", "IC50": 2140}
    ]},
    {"biological_target": "T1, P2Y1 receptor", "experiment": "P2Y1 IP1 accumulation HTRF assay, antagonism of agonist MRS2365 in stably transfected cells", "assay_type": "cell-based", "conditions": "single enantiomer; 5nM MRS2365; values rounded to nearest whole number", "method": "as §1, §2, §3, §4, §5", "units": {"IC50": "nM"}, "values": [
      {"smiles": "O=C(Nc1ccc(OC(F)(F)F)cc1)Nc1cccnc1Oc1ccccc1[C@]1(C(F)(F)F)CCO1", "note": "[S111]", "IC50": 119},
      {"smiles": "Cc1ccc(NC(=O)Nc2ccc(Cl)cc2F)c(Oc2ccccc2[C@]2(C(F)(F)F)CCO2)n1", "note": "(racemic) [S109]", "IC50": 126},
      {"smiles": "CC(C)(c1ccc(NC(=O)Nc2cccnc2Oc2ccccc2[C@@]2(C(F)(F)F)CCO2)cc1)C(F)(F)F", "note": "[S101]", "IC50": 48},
      {"smiles": "Cc1ccc(NC(=O)Nc2ccc(OC(F)(F)F)cc2F)c(Oc2ccccc2[C@@]2(C(F)(F)F)CCO2)n1", "note": "[S113]", "IC50": 34}
    ]}
  ]
}
